Values joined by “and” are separate entries in the source; they are usually repeats but may differ in a detail not shown here. Identical values can stand only once. Counter-ions that a name gives are not always drawn. Like-named read-outs stand apart in the source and are kept apart here.
Assays:
ATXN2-luc [1] = test: MSSR pilot screen: ATXN2-luc luciferase assay (Bright-Glo) in H2 cells, single 10 μM dose; assay type: cell-based, human; details: H2 cells, single dose (title: 10 μM compound), overnight
ATXN2-luc [2] = test: NCATS qHTS (LOPAC pilot, primary and confirmation): ATXN2-luc in S2 cells, 1536-well, Steady-Glo; assay type: cell-based, human; details: for Curve Class: LOPAC library (1,280 compounds) screening optimization, signed sub-classes (-1.1, -2.2, -3 ...)
Experimental: We next performed a pilot screen assay to optimize the 1536-well qHTS using S2 cells. […] Cytotoxicity was determined using a multiplexed viability assay (CellTiter-Fluor, a fluorescence-based viability assay using Gly-Phe-7-amino-4-trifluoromethylcoumarin substrate).
CellTiter-Fluor was used to determine compound effect on cell viability, and Steady-Glo was used to measure luciferase in a multiplexed assay.
The primary assay was conducted at the NCATS NIH Chemical Genomics Center laboratory. About 4 μl of S2 cell suspension in phenol red–free DMEM was dispensed into wells of 1536-well assay plates. […] Next, SteadyGlo luciferase substrate detection reagent (3 μl) was added to each well and incubated for an additional 5 min at room temperature. Luminescence was then measured on the ViewLux imager equipped with clear filters using a 2 s exposure. All screening operations were performed on a fully integrated robotic system (Kalypsys) containing one RX-130 and two RX-90 anthropomorphic robotic arms (Stäubli). Vehicle-only plates, with DMSO being pin-transferred to columns 5 to 48, were inserted uniformly at the beginning and the end of each library in order to monitor and record any shifts in assay performance.

[3] = Homo sapiens, LOPAC library screening optimization, logarithm of AC50 (negative values), read-out: Log AC50 (converted)
[4] = Homo sapiens, LOPAC library screening optimization, read-out: AC50
[5] = LOPAC library screening optimization, logarithm of AC50 (negative values)
[6] = LOPAC library screening optimization, read-out: AC50
[7] = LOPAC library screening optimization, curve-fit parameter

## COc1ccc(C[C@H]2NC[C@H](O)[C@H]2OC(C)=O)cc1 [Anisomycin]
ATXN2-luc [1]
  SD from mean (ATXN2-luc, Z-score): -4.015 SD

## Nc1c2ccccc2nc2ccccc12 [AMINACRINE]
ATXN2-luc [1]
  SD from mean (ATXN2-luc, Z-score): -4.103 SD

## CC(C)NC[C@H](O)COc1cccc2ccccc12 [(S)-Propranolol hydrochloride]
ATXN2-luc [2]; [3]
  AC50: 17.8 µM
ATXN2-luc [2]; [4]
  AC50: 17.8 µM
ATXN2-luc [2]
  Curve Class: -2.2
ATXN2-luc [2]; [5]
  Log AC50: -4.5
ATXN2-luc [2]; [6]
  AC50: 31.6 µM

## COc1cccc2c1C(=O)c1c(O)c3c(c(O)c1C2=O)C[C@@](O)(C(C)=O)C[C@@H]3O[C@H]1C[C@H](N)[C@H](O)[C@H](C)O1 [Daunorubicin hydrochloride]
ATXN2-luc [1]
  SD from mean (ATXN2-luc, Z-score): -4.155 SD

## Cl.Cl.O=C1c2c(O)ccc(O)c2C(=O)c2c(NCCNCCO)ccc(NCCNCCO)c21 [MITOXANTHRONE HYDROCHLORIDE]
ATXN2-luc [1]
  SD from mean (ATXN2-luc, Z-score): -4.333 SD

## C[C@@H]1O[C@@H](O[C@H]2C[C@@H](O)[C@]3(CO)[C@H]4[C@H](O)C[C@]5(C)[C@@H]([C@H]6COC(=O)C6)CC[C@]5(O)[C@@H]4CC[C@]3(O)C2)[C@H](O)[C@H](O)[C@H]1O [dihydroouabain]
ATXN2-luc [2]; [7]
  Hill Coef: 3.0654 and 2.7202 and 1.8851 and 1.6604

## O=C1c2c(O)ccc(O)c2C(=O)c2c(NCCNCCO)ccc(NCCNCCO)c21 [Mitoxantrone dihydrochloride]
ATXN2-luc [1]
  SD from mean (ATXN2-luc, Z-score): -3.666 SD

## O=C(Cc1ccc(Cl)c(Cl)c1)N1CCCCC1CN1CCCC1 (centres unmarked) [BRL 52537 hydrochloride]
ATXN2-luc [2]; [3]
  AC50: 35.5 µM
ATXN2-luc [2]; [4]
  AC50: 35.5 µM
ATXN2-luc [2]; [7]
  Efficacy: -82.8908
  Inf Activity: -85.8462

## CNCC[C@@H](Oc1ccccc1C)c1ccccc1 [Tomoxetine]
ATXN2-luc [2]; [3]
  AC50: 28.2 µM
ATXN2-luc [2]; [4]
  AC50: 28.2 µM
ATXN2-luc [2]
  Curve Class: -2.2
ATXN2-luc [2]; [7]
  Efficacy: -86.2041
  Inf Activity: -86.6862

## CNCC[C@H](Oc1ccc(C(F)(F)F)cc1)c1ccccc1.Cl [MLS002153300-01]
ATXN2-luc [2]
  Curve Class: -2.2
ATXN2-luc [2]; [7]
  Efficacy: -72.8775
  Hill Coef: 2.1211
  Inf Activity: -81.66
  Zero Activity: -8.7824
ATXN2-luc [2]; [5]
  Log AC50: -4.45
ATXN2-luc [2]; [6]
  AC50: 35.5 µM
ATXN2-luc [2]; LOPAC library screening optimization, response at highest tested concentration
  Max Resp: -62.2424

## Br.C[C@H]1C2Cc3ccc(O)cc3[C@]1(C)CCN2CCc1ccccc1 (single isomer, unassigned; (-)) [(-)-Phenazocine hydrobromide]
ATXN2-luc [2]; [3]
  AC50: 35.5 µM
ATXN2-luc [2]; [4]
  AC50: 35.5 µM
ATXN2-luc [2]; [7]
  Efficacy: -71.0942
  Inf Activity: -66.3244

## CC(C)/N=c1\cc2n(-c3ccc(Cl)cc3)c3ccccc3nc-2cc1Nc1ccc(Cl)cc1 [CLOFAZIMINE]
ATXN2-luc [1]
  SD from mean (ATXN2-luc, Z-score): -2.792 SD

## c1ccc(CN2CCC3(CCCc4ccccc43)CC2)cc1 [L-687,384 hydrochloride]
ATXN2-luc [2]; [3]
  AC50: 14.1 µM
ATXN2-luc [2]; [4]
  AC50: 14.1 µM
ATXN2-luc [2]
  Curve Class: -2.2
ATXN2-luc [2]; [7]
  Efficacy: -56.3105
  Inf Activity: -51.8105

## CCCCCCc1ccc(O)cc1O.Nc1c2ccccc2nc2ccccc12 [ACRISORCIN]
ATXN2-luc [1]
  SD from mean (ATXN2-luc, Z-score): -3.600 SD

## Nc1ncnc2c1c(I)cn2[C@@H]1C[C@H](N)[C@@H](O)[C@H]1O [A-134974 dihydrochloride hydrate]
ATXN2-luc [2]; [3]
  AC50: 10 µM
ATXN2-luc [2]; [4]
  AC50: 10 µM
ATXN2-luc [2]
  Curve Class: -2.1
ATXN2-luc [2]; [5]
  Log AC50: -4.9
ATXN2-luc [2]; [6]
  AC50: 12.6 µM

## COc1cc(C[C@H](C)N)c(OC)cc1Br.Cl
ATXN2-luc [2]; [3]
  AC50: 28.2 µM
ATXN2-luc [2]; [4]
  AC50: 28.2 µM
ATXN2-luc [2]; [7]
  Efficacy: -52.627
  Inf Activity: -55.207

## CO[C@H]1C=C[C@@]23c4cc5c(cc4CN(C[C@@H]2O)[C@H]3C1)OCO5 [CRINAMINE]
ATXN2-luc [1]
  SD from mean (ATXN2-luc, Z-score): -3.651 SD

## CC(=O)[C@]1(O)Cc2c(O)c3c(c(O)c2[C@@H](O[C@H]2C[C@H](N)[C@H](O)[C@H](C)O2)C1)C(=O)c1ccccc1C3=O [IDARUBICIN]
ATXN2-luc [1]
  SD from mean (ATXN2-luc, Z-score): -2.719 SD

## CC(=O)O[C@@H]1C[C@@]2(C)[C@H](c3ccoc3)C[C@H]3O[C@]32[C@]2(C)C(=O)C(O)=C3C(C)(C)C(=O)C=C[C@]3(C)[C@@H]12 [ANTHOTHECOL]
ATXN2-luc [1]
  SD from mean (ATXN2-luc, Z-score): -3.020 SD

## C[n+]1c2cc(N)ccc2cc2ccc(N)cc21.[Cl-] [ACRIFLAVINIUM HYDROCHLORIDE]
ATXN2-luc [1]
  SD from mean (ATXN2-luc, Z-score): -4.148 SD

## Nc1ccn([C@@H]2O[C@H](CO)[C@@H](O)[C@@H]2O)c(=O)n1 [CYTARABINE]
ATXN2-luc [1]
  SD from mean (ATXN2-luc, Z-score): -3.681 SD

## N=c1ccn2c(n1)O[C@H]1[C@H](O)[C@@H](CO)O[C@H]12 [ANCITABINE HYDROCHLORIDE]
ATXN2-luc [1]
  SD from mean (ATXN2-luc, Z-score): -3.031 SD

## C[C@H](N)CN1CCc2ccc(Br)cc21 [VER-3323 hemifumarate salt]
ATXN2-luc [2]; [3]
  AC50: 11.2 µM
ATXN2-luc [2]; [4]
  AC50: 11.2 µM
ATXN2-luc [2]
  Curve Class: -2.2
ATXN2-luc [2]; [5]
  Log AC50: -4.8
ATXN2-luc [2]; [6]
  AC50: 15.8 µM
